Laboratory results from US9448170B2 (priority 2003, dated 2016).
Where “and” joins values, the source holds several entries; their conditions need not be identical. Equal values may be shown once.

Assays:
[1] = test system: Spirulina platensis; type: cell-based
[2] = test system: Selenastrum capricomutum; experiment: Delayed fluorescence Curve / VCurve values with green algae photosynthetic sample; type: cell-based; conditions: simazine 25, 50, 100 ppb, dichlorophenol 1, 5, 10 ppm, 0.1 to 50 seconds after excitation; for Curve values variation with an increase in concentration: FIG. 37; for VCurve values variation with an increase in concentration: FIG. 38
Experimental: Meanwhile, if characteristic points are not present in a delayed fluorescence decay curve, the Curve values, determined for the entirety or a predetermined range of the decay curve, may be used as comparison values for carrying out the assay. Here, the Curve value at each measurement point n in a temporal variation of the light amount of delayed fluorescence is determined by: (amount of light emitted from the test measurement solution at measurement point n)−(amount of light emitted from the standard measurement solution at measurement point n).
In such a case, it is effective to use VCurve values, each being standardized by being determined as a ratio of a Curve value, which is a value obtained by determining a difference of the temporal variations of the light amount of delayed fluorescence acquired for the test measurement solution and the standard measurement solution, with respect to a light amount of delayed fluorescence acquired for the test measurement solution or the standard measurement solution (preferably, a light amount of delayed fluorescence acquired for the standard measurement solution), as the comparison values. The evaluation of variations within different time ranges is thereby facilitated. Here, in a temporal variation of the light amount of delayed fluorescence, the VCurve value at each measurement point n is determined as (Curve value at measurement point n)/(amount of light emitted from the standard measurement solution at measurement point n)×100.
FIG. 36 is a diagram of an example of a method of computing the Curve values when no characteristics points exist in a delayed fluorescence decay curve. Here, a delayed fluorescence decay curve of a standard measurement solution using Selenastrum capricomutum, which is a green algae and has been grown by a general method at a light intensity of 50 μmol/m^2/s under a white fluorescence lamp, as the photosynthetic sample is shown. Preparation of the sample is carried out in the same manner as in the case of Spirulina platensis. […] In such a case, assay using the Curve values is effective because assay that makes note of characteristic points cannot be made.
Specifically, graph (a) of FIG. 37 is a graph of the Curve values computed from the measurement results of test measurement solutions exposed to simazine, which is a herbicide, at concentrations of 25, 50, and 100 ppb and the measurement results of the standard measurement solution for a time range of 0.1 seconds to 50 seconds after excitation. Graph (b) is a graph of the Curve values computed from the measurement results of test measurement solutions exposed to dichlorophenol at concentrations of 1, 5, and 10 ppm and the measurement results of the standard measurement solution for a time range of 0.1 seconds to 50 seconds after excitation. […]

Compound | Curve value variation as the concentration becomes higher [1] | variation of the VCP1 value with respect to concentration [1] | variation of the VCP2 value with respect to concentration [1] | variation of the VTP2 value with respect to concentration [1] | Curve values variation with an increase in concentration [2] | VCurve values variation with an increase in concentration [2] | VCP1 value [1] | VCP1 value after the activated carbon adsorption treatment [1] | VCP2 value [1] | VTP2 value [1]
C[n+]1ccc(-c2cc[n+](C)cc2)cc1 [paraquat] | varies in the negative direction at around 1 to 4 seconds after excitation | decreases slightly | decrease | decrease | – | – | – | – | – | –
dichlorophenol | – | – | – | – | vary in the negative direction near 0.2 to 10 seconds after excitation | vary in the negative direction widely over the entire range | – | – | – | –
CN(C)C(=O)Nc1ccc(Cl)c(Cl)c1 [DCMU, DCMU (diuron)] | varies in positive direction at around 1 second after excitation and then varies in the negative direction at around 3 to 5 seconds after excitation | increases | decreases | hardly changes | – | – | 116.0 and 125.6 and 120.9 | 96.3 | 88.0 and 84.6 | 100.0 and 101.5
CCNc1nc(Cl)nc(NCC)n1 [simazine] | – | – | – | – | vary in the positive direction near 0.1 seconds after excitation | vary in the positive direction near 0.1 to 0.3 seconds after excitation | – | – | – | –
[Hg+2] [Hg2+, inorganic mercury] | varies in the positive direction at around 1 to 2 seconds after excitation | does not change much with an increase in the inorganic mercury concentration at low inorganic mercury concentration, at high inorganic mercury concentration, the VCP1 value increases | decreases | increases | – | – | – | – | – | –
CCNc1nc(Cl)nc(NC(C)C)n1 [atrazine] | varies in the positive direction at around 1 second after excitation and then varies in the negative direction at around 3 to 4 seconds after excitation | increases | decreases | decreases slightly | – | – | 106.4 | – | 90.0 | 100.0
